Laboratory results reported in PubChem BioAssay (NCI).
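Compound exposure: 48 hours, 5 concentrations, 96-well plates. Abbreviation: GI50, concentration required for 50% inhibition of growth. At the TGI there is no net growth.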

Experiments:
Experiment in all cases: NCI anticancer screen, dose series, 48 h
K-562 leukemia = system: K-562 leukemia
DU-145 prostate = system: DU-145 prostate
SF-268 CNS = system: SF-268 CNS
UACC-62 melanoma = system: UACC-62 melanoma
SNB-19 CNS = system: SNB-19 CNS
MCF7 breast = system: MCF7 breast
PC-3 prostate = system: PC-3 prostate
SK-MEL-5 melanoma = system: SK-MEL-5 melanoma
A549 NSCLC = system: A549 NSCLC
HCT-116 colon = system: HCT-116 colon
EKVX NSCLC = system: EKVX NSCLC
SR leukemia = system: SR leukemia
SK-MEL-2 melanoma = system: SK-MEL-2 melanoma
MDA-MB-231 breast = system: MDA-MB-231 breast
NCI-H23 lung = system: NCI-H23 lung
MALME-3M melanoma = system: MALME-3M melanoma
HL-60(TB) leukemia = system: HL-60(TB) leukemia
U251 CNS = system: U251 CNS
NCI-H226 lung = system: NCI-H226 lung
HCC-2998 colon = system: HCC-2998 colon
RXF 393 renal = system: RXF 393 renal
HS 578T breast = system: HS 578T breast
SF-539 CNS = system: SF-539 CNS
UACC-257 melanoma = system: UACC-257 melanoma
BT-549 breast = system: BT-549 breast
CAKI-1 renal = system: CAKI-1 renal
HT29 colon = system: HT29 colon
COLO 205 colon = system: COLO 205 colon
SN12C renal = system: SN12C renal
A498 renal = system: A498 renal
ACHN renal = system: ACHN renal
786-0 renal = system: 786-0 renal
OVCAR-8 ovarian = system: OVCAR-8 ovarian
KM12 colon = system: KM12 colon
T-47D breast = system: T-47D breast
OVCAR-3 ovarian = system: OVCAR-3 ovarian
HOP-92 NSCLC = system: HOP-92 NSCLC
SNB-75 CNS = system: SNB-75 CNS
SK-MEL-28 melanoma = system: SK-MEL-28 melanoma
TK-10 renal = system: TK-10 renal
CCRF-CEM leukemia = system: CCRF-CEM leukemia
RPMI-8226 leukemia = system: RPMI-8226 leukemia
OVCAR-5 ovarian = system: OVCAR-5 ovarian
MOLT-4 leukemia = system: MOLT-4 leukemia
MDA-MB-435 = system: MDA-MB-435
HCT-15 colon = system: HCT-15 colon
NCI/ADR-RES ovarian = system: NCI/ADR-RES ovarian
M14 melanoma = system: M14 melanoma
UO-31 renal = system: UO-31 renal
NCI-H460 lung = system: NCI-H460 lung
IGROV1 ovarian = system: IGROV1 ovarian
SK-OV-3 ovarian = system: SK-OV-3 ovarian
SW-620 colon = system: SW-620 colon
SF-295 CNS = system: SF-295 CNS
HOP-62 NSCLC = system: HOP-62 NSCLC
OVCAR-4 ovarian = system: OVCAR-4 ovarian

C#C[C@]1(O)CC[C@H]2[C@@H]3CC=C4c5sc(Nc6cc(C)cc(C)c6)nc5CC[C@]4(C)[C@H]3CC[C@@]21C
GI50 (K-562 leukemia): 1.58 µM
TGI (K-562 leukemia): 4.33 µM
GI50 (DU-145 prostate): 4.18 µM
TGI (DU-145 prostate): 21.8 µM
GI50 (SF-268 CNS): 2.54 µM
TGI (SF-268 CNS): 20.2 µM
GI50 (UACC-62 melanoma): 1.69 µM
TGI (UACC-62 melanoma): 4.1 µM
GI50 (SNB-19 CNS): 2 µM
TGI (SNB-19 CNS): 11.6 µM
GI50 (MCF7 breast): 1.61 µM
TGI (MCF7 breast): 6.22 µM
GI50 (PC-3 prostate): 1.53 µM
TGI (PC-3 prostate): 11.9 µM
GI50 (SK-MEL-5 melanoma): 1.65 µM
TGI (SK-MEL-5 melanoma): 3.15 µM
GI50 (A549 NSCLC): 4.08 µM
TGI (A549 NSCLC): 28.5 µM
GI50 (HCT-116 colon): 1.98 µM
TGI (HCT-116 colon): 10.1 µM
GI50 (EKVX NSCLC): 3.12 µM
TGI (EKVX NSCLC): 31.3 µM
GI50 (SR leukemia): 1.17 µM
TGI (SR leukemia): 5.88 µM
GI50 (SK-MEL-2 melanoma): 1.46 µM
TGI (SK-MEL-2 melanoma): 10.3 µM
GI50 (MDA-MB-231 breast): 2.96 µM
TGI (MDA-MB-231 breast): 15.1 µM
GI50 (NCI-H23 lung): 2.87 µM
TGI (NCI-H23 lung): 17 µM
GI50 (MALME-3M melanoma): 1.87 µM
TGI (MALME-3M melanoma): 5.6 µM
GI50 (HL-60(TB) leukemia): 1.29 µM
TGI (HL-60(TB) leukemia): 5.55 µM
GI50 (U251 CNS): 1.09 µM
TGI (U251 CNS): 18.4 µM
GI50 (NCI-H226 lung): 2.29 µM
TGI (NCI-H226 lung): 7.99 µM
GI50 (HCC-2998 colon): 5.47 µM
TGI (HCC-2998 colon): 23 µM
GI50 (RXF 393 renal): 0.142 µM
TGI (RXF 393 renal): 0.428 µM
GI50 (HS 578T breast): 0.526 µM
TGI (HS 578T breast): 5.89 µM
GI50 (SF-539 CNS): 0.392 µM
TGI (SF-539 CNS): 1.71 µM
GI50 (UACC-257 melanoma): 3.07 µM
TGI (UACC-257 melanoma): 21.7 µM
GI50 (BT-549 breast): 0.556 µM
TGI (BT-549 breast): 5.82 µM
GI50 (CAKI-1 renal): 2.69 µM
TGI (CAKI-1 renal): 15 µM
GI50 (HT29 colon): 1.65 µM
TGI (HT29 colon): 4.32 µM
GI50 (COLO 205 colon): 2.42 µM
TGI (COLO 205 colon): 5.9 µM
GI50 (SN12C renal): 8.38 µM
TGI (SN12C renal): 30.5 µM
GI50 (A498 renal): 0.791 µM
TGI (A498 renal): 2.98 µM
GI50 (ACHN renal): 3.72 µM
TGI (ACHN renal): 20.5 µM
GI50 (786-0 renal): 0.429 µM
TGI (786-0 renal): 2.28 µM
GI50 (OVCAR-8 ovarian): 7.08 µM
TGI (OVCAR-8 ovarian): > 100 µM
GI50 (KM12 colon): 2.6 µM
TGI (KM12 colon): 8.05 µM
GI50 (T-47D breast): 3.4 µM
TGI (T-47D breast): 85.8 µM
GI50 (OVCAR-3 ovarian): 3.59 µM
TGI (OVCAR-3 ovarian): 16.9 µM
GI50 (HOP-92 NSCLC): 3.17 µM
TGI (HOP-92 NSCLC): 13.6 µM
GI50 (SNB-75 CNS): 0.547 µM
TGI (SNB-75 CNS): 7.91 µM
GI50 (SK-MEL-28 melanoma): 1.07 µM
TGI (SK-MEL-28 melanoma): 2.95 µM
GI50 (TK-10 renal): 9.87 µM
TGI (TK-10 renal): 36.5 µM
GI50 (CCRF-CEM leukemia): 1.7 µM
TGI (CCRF-CEM leukemia): 8.43 µM
GI50 (RPMI-8226 leukemia): 0.272 µM
TGI (RPMI-8226 leukemia): 0.823 µM
GI50 (OVCAR-5 ovarian): 3.69 µM
TGI (OVCAR-5 ovarian): 15.8 µM
GI50 (MOLT-4 leukemia): 0.555 µM
TGI (MOLT-4 leukemia): 5.83 µM
GI50 (MDA-MB-435): 2.83 µM
TGI (MDA-MB-435): 12.4 µM
GI50 (HCT-15 colon): 1.88 µM
TGI (HCT-15 colon): 5.58 µM
GI50 (NCI/ADR-RES ovarian): 4.86 µM
TGI (NCI/ADR-RES ovarian): 45.5 µM
GI50 (M14 melanoma): 1.58 µM
TGI (M14 melanoma): 6.87 µM
GI50 (UO-31 renal): 2.72 µM
TGI (UO-31 renal): 9.7 µM
GI50 (NCI-H460 lung): 2.72 µM
TGI (NCI-H460 lung): 13 µM
GI50 (IGROV1 ovarian): 4.85 µM
TGI (IGROV1 ovarian): 60.6 µM
GI50 (SK-OV-3 ovarian): 2.23 µM
TGI (SK-OV-3 ovarian): 7.94 µM
GI50 (SW-620 colon): 2.12 µM
TGI (SW-620 colon): 4.89 µM
GI50 (SF-295 CNS): 0.297 µM
TGI (SF-295 CNS): 0.966 µM
GI50 (HOP-62 NSCLC): 2.55 µM
TGI (HOP-62 NSCLC): 20.1 µM
GI50 (OVCAR-4 ovarian): 4.63 µM
TGI (OVCAR-4 ovarian): > 100 µM
